Each structure is given as a SMILES string.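 Five concentrations, 48 hours, 96-well plates. TGI is the concentration that stops growth completely.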 A value given as a limit tells only on which side of the number the result lay.

Test systems include SNB-19 CNS; CAKI-1 renal; M14 melanoma; SK-MEL-28 melanoma; HS 578T breast; SK-MEL-5 melanoma; HL-60(TB) leukemia; PC-3 prostate; NCI-H226 lung; SF-268 CNS; OVCAR-3 ovarian; UACC-62 melanoma; MDA-MB-435; NCI-H23 lung; MALME-3M melanoma; UACC-257 melanoma.
Common to all, as to assay: NCI-60 cell line screen, 48 h

With `CC1(C)OP(=O)(c2ccccc2)C=C1Br` (configuration not stated), the TGI in the test with SNB-19 CNS, with CAKI-1 renal, with M14 melanoma, with SK-MEL-28 melanoma, with HS 578T breast and with SK-MEL-5 melanoma was greater than 100 µM throughout. Besides, the TGI in the test on HL-60(TB) leukemia, in the test with PC-3 prostate, with NCI-H226 lung, with SF-268 CNS, in the test on OVCAR-3 ovarian and in the test on UACC-62 melanoma was greater than 100 µM each time. Also, the TGI in the test with MDA-MB-435, with NCI-H23 lung, with MALME-3M melanoma and with UACC-257 melanoma was greater than 100 µM in each case.
On to `CCOC(=O)c1ccc(N(C)Cc2cnc3nc(N)nc(N)c3n2)cc1`, for which the TGI with SNB-19 CNS was greater than 100 µM; in the test on CAKI-1 renal it was 45 µM; in the test with M14 melanoma, 97.2 µM; in the test on SK-MEL-28 melanoma, 83.8 µM; in the test with HS 578T breast, 73.1 µM; with SK-MEL-5 melanoma, greater than 100 µM. Also, the TGI in the test with HL-60(TB) leukemia is greater than 100 µM; with PC-3 prostate it was 88.4 µM; in the test with NCI-H226 lung, 41.8 µM; in the test on SF-268 CNS it was greater than 100 µM; in the test on OVCAR-3 ovarian it was 34.9 µM; with UACC-62 melanoma, 33.8 µM. Besides, the TGI was greater than 100 µM with MDA-MB-435, greater than 100 µM with NCI-H23 lung, 51.1 µM with MALME-3M melanoma and greater than 100 µM with UACC-257 melanoma.
Turning to `COc1ccc(NS(=O)(=O)c2ccc3ncn(NS(=O)(=O)c4ccc(I)cc4)c(=O)c3c2)cc1`, the TGI with SNB-19 CNS, in the test on CAKI-1 renal, in the test on M14 melanoma, in the test with SK-MEL-28 melanoma, with HS 578T breast and in the test with SK-MEL-5 melanoma was greater than 100 µM in each case. Also, the TGI in the test on HL-60(TB) leukemia, in the test with PC-3 prostate, in the test on NCI-H226 lung, in the test with SF-268 CNS, in the test on OVCAR-3 ovarian and in the test on UACC-62 melanoma was greater than 100 µM each time. The TGI with MDA-MB-435, in the test with NCI-H23 lung, in the test with MALME-3M melanoma and in the test with UACC-257 melanoma was greater than 100 µM in each case.
For the compound `CCOC(=O)C(CC(C)C)NC(=O)C(N)Cc1ccc(N(CCCl)CCCl)cc1` (configuration not stated), the TGI in the test on SNB-19 CNS was determined as 35.5 µM; with CAKI-1 renal it was 15.3 µM; with M14 melanoma it was 11.7 µM; in the test with SK-MEL-28 melanoma, 13.7 µM; in the test on HS 578T breast it was 44.5 µM; in the test on SK-MEL-5 melanoma, 19.8 µM. Besides, the TGI is 2.51 µM in the test with HL-60(TB) leukemia; 32.2 µM in the test with PC-3 prostate; 29.5 µM in the test on NCI-H226 lung; 16.8 µM in the test with SF-268 CNS; 4.72 µM in the test with OVCAR-3 ovarian; 9.56 µM in the test on UACC-62 melanoma. The TGI is 46.2 µM with MDA-MB-435, 7.09 µM in the test on NCI-H23 lung, 3.84 µM in the test with MALME-3M melanoma and 26.9 µM with UACC-257 melanoma.
With `COc1cc2c(OC)c3cc(C)oc(=O)c3c(O)c2c(O)c1-c1c(OC)cc2c(OC)c3cc(C)oc(=O)c3c(O)c2c1O`, the TGI in the test with SNB-19 CNS is 65.1 µM; in the test on CAKI-1 renal, 47 µM; with M14 melanoma, 35.4 µM; in the test with SK-MEL-28 melanoma, 53.5 µM; with HS 578T breast, greater than 100 µM; in the test on SK-MEL-5 melanoma, 35.8 µM. Moreover, the TGI in the test with HL-60(TB) leukemia was 33.9 µM; in the test on PC-3 prostate, 33 µM; with NCI-H226 lung it was 38.2 µM; in the test with SF-268 CNS it was 42.6 µM; in the test with OVCAR-3 ovarian, 33.9 µM; with UACC-62 melanoma, 41 µM. Moreover, the TGI in the test on MDA-MB-435 is 33.9 µM; in the test on NCI-H23 lung it was 32.5 µM; with MALME-3M melanoma, 37.2 µM; in the test on UACC-257 melanoma, 44.1 µM.
Consider `CC(Cc1ccc(O)cn1)(NC(=O)c1ccccc1)C(=O)O` (configuration not stated), for which the TGI with SNB-19 CNS, with CAKI-1 renal, in the test on M14 melanoma, in the test on SK-MEL-28 melanoma, in the test with HS 578T breast and in the test on SK-MEL-5 melanoma was greater than 100 µM each time. The TGI with HL-60(TB) leukemia, with PC-3 prostate, in the test on NCI-H226 lung, with SF-268 CNS, with OVCAR-3 ovarian and in the test with UACC-62 melanoma was greater than 100 µM in each case. In addition, the TGI in the test with MDA-MB-435, with NCI-H23 lung, in the test on MALME-3M melanoma and in the test on UACC-257 melanoma was greater than 100 µM in each case.
In the case of `O=C(CC(O)(C(F)(F)Cl)C(F)(F)Cl)CC(O)(C(F)(F)Cl)C(F)(F)Cl`, the TGI in the test with SNB-19 CNS is greater than 10 µM; with CAKI-1 renal it was 6.62 µM; with M14 melanoma it was greater than 10 µM; with SK-MEL-28 melanoma it was greater than 10 µM; in the test on HS 578T breast it was 7.86 µM; in the test with SK-MEL-5 melanoma, 4.62 µM. The TGI was 4.94 µM in the test with HL-60(TB) leukemia; 8.2 µM in the test on PC-3 prostate; 4.66 µM in the test on NCI-H226 lung; greater than 10 µM in the test with SF-268 CNS; greater than 10 µM in the test on OVCAR-3 ovarian; greater than 10 µM with UACC-62 melanoma. In addition, the TGI in the test with MDA-MB-435 was determined as 8.63 µM; in the test on NCI-H23 lung, 4.29 µM; with MALME-3M melanoma, 4.36 µM; in the test with UACC-257 melanoma, 6.17 µM.
With `CCOC(=O)c1sc2c(c1OC(=O)c1ccc(Cl)cc1Cl)c(=O)n(-c1ccccc1)c(=S)n2-c1ccccc1`, the TGI is greater than 100 µM in the test with SNB-19 CNS; greater than 100 µM with CAKI-1 renal; greater than 100 µM in the test on M14 melanoma; greater than 100 µM in the test with SK-MEL-28 melanoma; greater than 100 µM in the test on HS 578T breast; 51.1 µM with SK-MEL-5 melanoma. In addition, the TGI in the test on HL-60(TB) leukemia was 30.9 µM; in the test with PC-3 prostate, greater than 100 µM; in the test with NCI-H226 lung it was greater than 33.6 µM; in the test with SF-268 CNS it was greater than 100 µM; in the test with OVCAR-3 ovarian, greater than 100 µM; with UACC-62 melanoma it was greater than 80.2 µM. The TGI with MDA-MB-435 is greater than 100 µM; with NCI-H23 lung, greater than 82.6 µM; in the test on MALME-3M melanoma it was 66.3 µM; in the test with UACC-257 melanoma it was greater than 100 µM.
Consider `CCOC(=O)C(=NN(C)c1ncccc1N)C(=O)OCC`, for which the TGI in the test with SNB-19 CNS, in the test on CAKI-1 renal, in the test with M14 melanoma, in the test on SK-MEL-28 melanoma, with HS 578T breast and with SK-MEL-5 melanoma was greater than 100 µM in each case. Besides, the TGI in the test on HL-60(TB) leukemia was 84.2 µM; in the test with PC-3 prostate, greater than 100 µM; in the test with NCI-H226 lung it was 47.6 µM; in the test with SF-268 CNS, greater than 100 µM; with OVCAR-3 ovarian it was greater than 100 µM; in the test with UACC-62 melanoma it was greater than 100 µM. In addition, the TGI in the test with MDA-MB-435 is 44.5 µM; in the test on NCI-H23 lung, greater than 100 µM; in the test on MALME-3M melanoma, 59.7 µM; in the test with UACC-257 melanoma, 58.7 µM.
Consider `Brc1ccc(N=C/C=C(\Nc2ccc(Br)cc2)C23CC4CC(CC(C4)C2)C3)cc1`, for which the TGI in the test on SNB-19 CNS was greater than 100 µM; in the test on CAKI-1 renal it was 25.4 µM; in the test with M14 melanoma, 71 µM; with SK-MEL-28 melanoma, greater than 59.5 µM; in the test with HS 578T breast, greater than 67.4 µM; with SK-MEL-5 melanoma, 26.6 µM. Further, the TGI in the test on HL-60(TB) leukemia was 23.3 µM; in the test on PC-3 prostate, 41 µM; with NCI-H226 lung it was greater than 100 µM; in the test on SF-268 CNS, 37.9 µM; with OVCAR-3 ovarian, 28.9 µM; in the test on UACC-62 melanoma, 15 µM. The TGI in the test on MDA-MB-435 is 24.7 µM; in the test with NCI-H23 lung it was greater than 65.8 µM; in the test on MALME-3M melanoma, 42.8 µM; with UACC-257 melanoma, 36.8 µM.
On to `N[C@@H]1c2c(Br)sc(Br)c2C(=O)[C@H]1Br`, for which the TGI in the test on SNB-19 CNS is greater than 74.6 µM; with CAKI-1 renal, 66.4 µM; with M14 melanoma it was 50.9 µM; with SK-MEL-28 melanoma, 54.8 µM; in the test with HS 578T breast it was greater than 100 µM; in the test on SK-MEL-5 melanoma, greater than 100 µM. For the same compound, the TGI with HL-60(TB) leukemia was greater than 24.8 µM; in the test on PC-3 prostate it was greater than 84.8 µM; in the test with NCI-H226 lung, greater than 58.4 µM; with SF-268 CNS it was greater than 100 µM; in the test on OVCAR-3 ovarian, greater than 89.8 µM; in the test with UACC-62 melanoma, 59.3 µM. The TGI with MDA-MB-435 was greater than 61 µM; with NCI-H23 lung, 57.4 µM; with MALME-3M melanoma, 57.4 µM; in the test on UACC-257 melanoma it was greater than 75.3 µM.
In the case of `Cc1ccc2[nH]c3c(C)c4cc[n+](C)cc4c(C)c3c2c1`, the TGI is 2.53 µM with SNB-19 CNS; greater than 56.5 µM in the test with CAKI-1 renal; 28.9 µM in the test with M14 melanoma; 8.48 µM in the test with SK-MEL-28 melanoma; 0.917 µM in the test with HS 578T breast; 8.54 µM in the test on SK-MEL-5 melanoma. For the same compound, the TGI in the test on HL-60(TB) leukemia was 29.8 µM; in the test with PC-3 prostate, 7.63 µM; in the test on NCI-H226 lung it was 3.24 µM; with SF-268 CNS, 1.77 µM; in the test with OVCAR-3 ovarian, 19.2 µM; in the test on UACC-62 melanoma, 16.4 µM. The TGI in the test on MDA-MB-435 was determined as 13.7 µM; with NCI-H23 lung, 5.77 µM; with MALME-3M melanoma it was 4.38 µM; in the test on UACC-257 melanoma, 20.2 µM.
Regarding `C/C(CC(O)(C(F)(F)Cl)C(F)(F)Cl)=N\Nc1ccccc1`, the TGI with SNB-19 CNS is greater than 100 µM; in the test with CAKI-1 renal, 67.2 µM; in the test on M14 melanoma it was greater than 100 µM; in the test with SK-MEL-28 melanoma, greater than 100 µM; in the test on HS 578T breast, 66.2 µM; in the test on SK-MEL-5 melanoma, 36.9 µM. The TGI in the test with HL-60(TB) leukemia was 62.5 µM; in the test with PC-3 prostate, 78.9 µM; in the test with NCI-H226 lung, 89.1 µM; in the test with OVCAR-3 ovarian, 48.3 µM; in the test on UACC-62 melanoma it was greater than 100 µM; in the test on MDA-MB-435, greater than 100 µM. The TGI in the test on NCI-H23 lung was 50 µM; in the test on MALME-3M melanoma it was greater than 100 µM; in the test with UACC-257 melanoma it was greater than 100 µM.

Source of the values: PubChem BioAssay (NCI).
